Read-outs that look alike come from different tables or passages of the source.
Tests used:
Jak2 = Jak2 (Homo sapiens, UniProt O60674); test: Jak2 in vitro kinase assay; assay type: biochemical; settings: Caliper versus literature (Figure S5B)
[1] = tested on: Phospho-STAT5 (P-STAT5) levels in HEL cells (Jak2V617F); test: Western blot of phospho-STAT5 in HEL cells; assay type: cell-based, human; settings: for IC50: mean ± SD
[2] = tested on: Jak2V617F in HEK-V617F-STAT-Rep. cells; test: pSTAT-ZsGreen reporter gene assay; assay type: cell-based; settings: 24 h, read-out: IC50 values, STAT-reporter gene assay
[3] = tested on: Jak2V617F in γ2A-FRT-TI-Jak2V617F/STAT3-YFP cells; test: STAT3-YFP translocation assay; assay type: cell-based; settings: read-out: IC50 values, STAT3-YFP translocation assay
HEL cells = test: Cell proliferation assay; assay type: cell-based, human
[4] = tested on: γ2A-FRT-TI-Jak2V617F/STAT3-YFP cells; test: Nuclei size by confocal imaging and Cell Profiler; assay type: cell-based; settings: 24 hrs; Cell Profiler
[5] = tested on: P-STAT5 in UKE-1 cells (Jak2V617F); test: Western blot of phospho-STAT5 in UKE-1 cells; assay type: cell-based; settings: 2.5 μM, 3 hrs
[6] = tested on: P-STAT5 in BA/F3-EpoR-Jak2V617F cells; test: Western blot of phospho-STAT5 in BA/F3-EpoR-Jak2V617F cells; assay type: cell-based, murine; settings: 2.5 μM, 3 hrs
[7] = tested on: Jak2V617F phosphorylation (P-Jak2) in HEL cells; test: Western blot of phospho-Jak2 in HEL cells; assay type: cell-based, human; settings: 0.5, 1 or 5 μM, 3 hrs

Sequence of Jak2 (O60674 whole entry): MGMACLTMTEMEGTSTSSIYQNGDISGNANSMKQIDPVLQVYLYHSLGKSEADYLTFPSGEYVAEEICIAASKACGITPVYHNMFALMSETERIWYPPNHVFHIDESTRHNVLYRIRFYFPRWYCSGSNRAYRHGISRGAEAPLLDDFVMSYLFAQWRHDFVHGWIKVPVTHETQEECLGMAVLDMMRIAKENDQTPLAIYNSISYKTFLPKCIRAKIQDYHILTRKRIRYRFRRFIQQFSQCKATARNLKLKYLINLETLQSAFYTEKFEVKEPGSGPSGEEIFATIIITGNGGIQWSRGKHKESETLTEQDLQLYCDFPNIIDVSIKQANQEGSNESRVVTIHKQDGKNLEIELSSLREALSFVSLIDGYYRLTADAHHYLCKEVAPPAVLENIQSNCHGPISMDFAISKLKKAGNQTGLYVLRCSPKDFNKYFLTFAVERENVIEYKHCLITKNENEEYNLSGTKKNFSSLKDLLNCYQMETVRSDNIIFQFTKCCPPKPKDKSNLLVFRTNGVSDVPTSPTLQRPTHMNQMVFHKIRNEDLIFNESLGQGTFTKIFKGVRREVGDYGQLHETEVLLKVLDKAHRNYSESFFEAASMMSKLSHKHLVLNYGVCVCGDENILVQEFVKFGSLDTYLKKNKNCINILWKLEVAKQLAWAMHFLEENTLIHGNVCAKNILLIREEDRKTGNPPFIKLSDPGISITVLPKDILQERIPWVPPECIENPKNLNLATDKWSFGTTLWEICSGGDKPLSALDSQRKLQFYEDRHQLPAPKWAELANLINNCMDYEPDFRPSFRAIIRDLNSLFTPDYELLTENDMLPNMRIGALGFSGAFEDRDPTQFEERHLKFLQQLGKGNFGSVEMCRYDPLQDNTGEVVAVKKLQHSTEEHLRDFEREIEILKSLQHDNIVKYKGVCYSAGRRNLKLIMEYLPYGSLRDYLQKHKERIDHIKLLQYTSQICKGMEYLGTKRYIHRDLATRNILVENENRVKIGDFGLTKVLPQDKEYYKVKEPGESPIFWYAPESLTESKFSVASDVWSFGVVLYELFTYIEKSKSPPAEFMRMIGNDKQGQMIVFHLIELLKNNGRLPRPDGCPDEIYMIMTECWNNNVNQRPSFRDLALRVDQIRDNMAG

N#CCNC(=O)c1ccc(-c2ccnc(Nc3ccc(N4CCOCC4)cc3)n2)cc1 [CYT387]
divergence between own and published in vitro kinase assay IC50 (Jak2): greater than 10 fold | effect on phosphorylation of STAT5 (Western blot) ([1]; HEL cells, 0.5, 1 or 5 μM, 3 hrs): showed the same effects but were less efficient | IC50 ([1]; Homo sapiens, HEL, read-out: IC50 values, WB (P-STAT5), HEL cells): ~600 nM | IC50 ([1]; read-out: IC50 values, WB (P-STAT5), HEL cells): 633 ± 90 nM | IC50 [2]: 794 ± 7 nM | IC50 [3]: 459 ± 126 nM | effect on proliferation of HEL cells (HEL cells; 0.3 or 1 μM, 72 hrs): showed the same effects but were less efficient | IC50 (HEL cells; Homo sapiens, HEL, 72 h, read-out: IC50 values, Proliferation assay): 1180 ± 413 nM | concentration at which nuclei size increases [4]: did not have this effect | effect on phosphorylation of STAT5 (Western blot) [5]: efficiently decreased | effect on phosphorylation of STAT5 (Western blot) [6]: efficiently decreased | effect on phosphorylation of Jak2 [7]: increased phosphorylation of Jak2

— publication PMC3822589 (Journal of Cellular and Molecular Medicine, 2013)
